{"source": "ChEMBL document CHEMBL5729210", "about": "“Benzodiazepine derivatives as RSV inhibitors” (2022)"}
{"test": "RSV-A Assay: The description is Japanese."}
{"smiles": "COCCOC(=O)c1nc2ccccc2n1CCOC", "EC50": "> 800 nM"}
{"smiles": "O=C1Nc2ccccc2C(c2ccccc2)=N[C@@H]1Nc1nnc(-c2ccc(C(F)(F)F)nc2N2CC3CCC(C2)O3)o1", "EC50": "in the range around 600 nM"}
{"smiles": "O=C1Nc2ccccc2C(c2ccccc2)=N[C@@H]1Nc1nnc(-c2ncc(C3CC3)cc2N2CC3CCC(C2)O3)o1", "EC50": "< 400 nM"}
{"smiles": "C#Cc1cnc(-c2nnc(N[C@H]3N=C(c4ccccc4)c4ccccc4NC3=O)o2)c(N2CCOCC2)c1", "EC50": "< 400 nM"}
{"smiles": "COCCOc1cc(C#N)ccc1-c1nnc(N[C@H]2N=C(c3ccccc3)c3ccccc3NC2=O)o1", "EC50": "< 400 nM"}
{"smiles": "CN1CCN(c2cc(C(F)(F)F)cnc2-c2nnc(N[C@H]3N=C(c4ccccc4)c4ccccc4NC3=O)o2)CC1=O", "EC50": "> 800 nM"}
{"smiles": "O=C1Nc2ccccc2C(c2ccccc2)=NC1Nc1nnc(-c2ccccc2-n2cccn2)o1", "note": "(stereo not given)", "EC50": "> 800 nM"}
{"smiles": "O=C1Nc2ccccc2C(c2ccccc2)=NC1Nc1nnc(-c2cccnc2N2C[C@@H]3C[C@H]2CO3)o1", "note": "(stereo not given in full)", "EC50": "> 800 nM"}
{"smiles": "CCOC(=O)c1ncc(N2CCCC2)cc1N1CCOCC1", "EC50": "< 400 nM"}
{"smiles": "O=C1Nc2ccccc2C(c2ccccc2)=NC1Nc1nnc(-c2cccnc2N2C3CCC2COC3)o1", "note": "(stereo not given)", "EC50": "> 800 nM"}
{"smiles": "N#CC1CCN(c2ncccc2-c2nnc(NC3N=C(c4ccccc4)c4ccccc4NC3=O)o2)CC1", "note": "(stereo not given)", "EC50": "> 800 nM"}
{"smiles": "Cc1noc(C)c1-c1cc(C#N)ccc1-c1nnc(N[C@H]2N=C(c3ccccc3)c3ccccc3NC2=O)o1", "EC50": "> 800 nM"}
{"smiles": "COC1CN(c2cc(C(F)(F)F)cnc2-c2nnc(N[C@H]3N=C(c4ccccc4)c4ccccc4NC3=O)o2)C1", "EC50": "> 800 nM"}
{"smiles": "N#Cc1ccc(-c2nnc(N[C@H]3N=C(c4ccccc4)c4ccccc4NC3=O)o2)c(-c2ccoc2)c1", "EC50": "> 800 nM"}
{"smiles": "CN(CC(C)(C)O)c1cc(C(F)(F)F)cnc1-c1nnc(N[C@H]2N=C(c3ccccc3)c3ccccc3NC2=O)o1", "EC50": "> 800 nM"}
{"smiles": "O=C1Nc2ccccc2C(c2ccccc2)=NC1Nc1nnc(-c2ccc(-n3cncn3)cc2)o1", "note": "(stereo not given)", "EC50": "in the range around 600 nM"}
{"smiles": "C[C@@H]1COCCN1c1cc(C#N)ccc1-c1nnc(N[C@H]2N=C(c3ccccc3)c3ccccc3NC2=O)o1", "EC50": "< 400 nM"}
{"smiles": "O=C1Nc2ccccc2C(c2ccccc2)=N[C@@H]1Nc1nnc(-c2nc3ccccc3cc2N2CCOCC2)o1", "EC50": "< 400 nM"}
{"smiles": "Cc1ccc(-c2nnc(N[C@H]3N=C(c4ccccc4)c4ccccc4NC3=O)o2)c(N2CC3CCC(C2)O3)n1", "EC50": "< 400 nM"}
{"smiles": "CN(C)c1cc(C(F)(F)F)cnc1-c1nnc(N[C@H]2N=C(c3ccccc3)c3ccccc3NC2=O)o1", "EC50": "> 800 nM"}
{"smiles": "COCCn1nccc1-c1nnc(N[C@H]2N=C(c3ccccc3)c3ccccc3NC2=O)o1", "EC50": "> 800 nM"}
{"smiles": "O=C1Nc2ccccc2C(c2ccccc2)=N[C@@H]1Nc1nnc(-c2ncc(C3=CCCCC3)cc2N2CCOCC2)o1", "EC50": "in the range around 600 nM"}
{"smiles": "C[C@@H]1COCCN1c1cc(C#N)cnc1-c1nnc(N[C@H]2N=C(c3ccccc3)c3ccccc3NC2=O)o1", "EC50": "< 400 nM"}
{"smiles": "COCCn1ccnc1-c1nnc(N[C@H]2N=C(c3ccccc3)c3ccccc3NC2=O)o1", "EC50": "> 800 nM"}
{"smiles": "Cc1ccc(-c2nnc(N[C@H]3N=C(c4ccccc4)c4ccccc4NC3=O)o2)c(N2C3CCC2COC3)n1", "EC50": "< 400 nM"}
{"smiles": "C[C@H]1COCCN1c1ncccc1-c1nnc(NC2N=C(c3ccccc3)c3ccccc3NC2=O)o1", "note": "(stereo not given in full)", "EC50": "> 800 nM"}
{"smiles": "O=C1Nc2ccccc2C(c2ccccc2)=N[C@@H]1Nc1nnc(-c2cccnc2N2CCn3ncnc3C2)o1", "EC50": "> 800 nM"}
{"smiles": "O=C1Nc2ccccc2C(c2ccccc2)=N[C@@H]1Nc1nnc(-c2ncc(C(F)(F)F)cc2N2CCC(F)CC2)o1", "EC50": "> 800 nM"}
{"smiles": "O=C1Nc2ccccc2C(c2ccccc2)=N[C@@H]1Nc1nnc(-c2ncc(C(F)(F)F)cc2N2C3CCC2COC3)o1", "EC50": "< 400 nM"}
{"smiles": "O=C1Nc2ccccc2C(c2ccccc2)=N[C@@H]1Nc1nnc(-c2ncc(F)cc2N2CC3CCC(C2)O3)o1", "EC50": "< 400 nM"}
{"smiles": "O=C1Nc2ccccc2C(c2ccccc2)=N[C@@H]1Nc1nnc(-c2cnc(C(F)(F)F)nc2N2CC3CCC(C2)O3)o1", "EC50": "> 800 nM"}
{"smiles": "C[C@@H]1COCCN1c1ncccc1-c1nnc(NC2N=C(c3ccccc3)c3ccccc3NC2=O)o1", "note": "(stereo not given in full)", "EC50": "< 400 nM"}
{"smiles": "O=C1Nc2ccccc2C(c2ccccc2)=N[C@@H]1Nc1nnc(-c2ncc3ccccc3c2N2CCOCC2)o1", "EC50": "> 800 nM"}
{"smiles": "CN[C@H](c1ccccc1)c1nnc(NC2N=C(c3ccccc3)c3ccccc3NC2=O)o1", "note": "(stereo not given in full)", "EC50": "> 800 nM"}
{"smiles": "N#Cc1c[nH]c2cc(-c3nnc(N[C@H]4N=C(c5ccccc5)c5ccccc5NC4=O)o3)ccc12", "EC50": "> 800 nM"}
{"smiles": "O=C1Nc2ccccc2C(c2ccccc2)=N[C@@H]1Nc1nnc(-c2ncc(C(F)(F)F)cc2C2CC2)o1", "EC50": "> 800 nM"}
{"smiles": "O=C1Nc2ccccc2C(c2ccccc2)=N[C@@H]1Nc1nnc(-c2ccc(C(F)(F)F)nc2N2C3CCC2COC3)o1", "EC50": "> 800 nM"}
{"smiles": "COC(=O)c1nc(C)sc1N1CCOCC1", "EC50": "< 400 nM"}
{"smiles": "CO[C@@H]1CCN(c2ccccc2-c2nnc(NC3N=C(c4ccccc4)c4ccccc4NC3=O)o2)C1", "note": "(stereo not given in full)", "EC50": "> 800 nM"}
{"smiles": "O=C1Nc2ccccc2C(c2ccccc2)=NC1Nc1nnc(-c2cccnc2N2CCCC(F)(F)C2)o1", "note": "(stereo not given)", "EC50": "> 800 nM"}
{"smiles": "O=C1Nc2ccccc2C(c2ccccc2)=N[C@@H]1Nc1nnc(-c2cccnc2N2CCOCC2)o1", "EC50": "< 400 nM"}
{"smiles": "O=C1Nc2ccccc2C(c2ccccc2)=N[C@@H]1Nc1nnc(-c2ccc(N3C4CCC3COC4)cc2Cl)o1", "EC50": "> 800 nM"}
{"smiles": "N#Cc1ccc(-c2nnc(N[C@H]3N=C(c4ccccc4)c4ccccc4NC3=O)o2)c(N2C3CCC2COC3)c1", "EC50": "< 400 nM"}
{"smiles": "Cc1ccc(-c2nnc(N[C@H]3N=C(c4ccccc4)c4ccccc4NC3=O)o2)c(N2CCOC[C@H]2C)n1", "EC50": "< 400 nM"}
{"smiles": "N#Cc1cc(N2CCOCC2)c(-c2nnc(N[C@H]3N=C(c4ccccc4)c4ccccc4NC3=O)o2)s1", "EC50": "< 400 nM"}
{"smiles": "C[C@@H]1CN(c2cc(F)ccc2-c2nnc(N[C@H]3N=C(c4ccccc4)c4ccccc4NC3=O)o2)C[C@H](C)O1", "EC50": "> 800 nM"}
{"smiles": "COC1CN(c2ncccc2-c2nnc(NC3N=C(c4ccccc4)c4ccccc4NC3=O)o2)C1", "note": "(stereo not given)", "EC50": "> 800 nM"}
{"smiles": "O=C1Nc2ccccc2C(c2ccccc2)=NC1Nc1nnc(-c2cccnc2N2CCC(F)CC2)o1", "note": "(stereo not given)", "EC50": "> 800 nM"}
{"smiles": "C[C@@H]1CN(c2ncccc2-c2nnc(NC3N=C(c4ccccc4)c4ccccc4NC3=O)o2)CCO1", "note": "(stereo not given in full)", "EC50": "> 800 nM"}
{"smiles": "O=C1Nc2ccccc2C(c2ccccc2)=NC1Nc1nnc(-c2cccnc2N2CCC(O)CC2)o1", "note": "(stereo not given)", "EC50": "> 800 nM"}
{"smiles": "N#Cc1cnc(-c2nnc(N[C@H]3N=C(c4ccccc4)c4ccccc4NC3=O)o2)c(N2CC3CCC(C2)O3)c1", "EC50": "< 400 nM"}
{"smiles": "N#CC1CN(c2ncccc2-c2nnc(NC3N=C(c4ccccc4)c4ccccc4NC3=O)o2)C1", "note": "(stereo not given)", "EC50": "> 800 nM"}
{"smiles": "CCOC(=O)c1ncc(C(F)(F)F)cc1-c1ccncc1", "EC50": "> 800 nM"}
{"smiles": "N#Cc1ccc(-c2nnc(N[C@H]3N=C(c4ccccc4)c4ccccc4NC3=O)o2)c(N2CC3CCC(C2)O3)c1", "EC50": "< 400 nM"}
{"smiles": "COc1ccc(-c2nnc(N[C@H]3N=C(c4ccccc4)c4ccccc4NC3=O)o2)c(N2CCOCC2)n1", "EC50": "< 400 nM"}
{"smiles": "C[C@@H]1COCCN1c1cc(C(F)(F)F)cnc1-c1nnc(N[C@H]2N=C(c3ccccc3)c3ccccc3NC2=O)o1", "EC50": "< 400 nM"}
{"smiles": "N#CCCNc1cc(C(F)(F)F)cnc1-c1nnc(N[C@H]2N=C(c3ccccc3)c3ccccc3NC2=O)o1", "EC50": "< 400 nM"}
{"smiles": "O=C1Nc2ccccc2C(c2ccccc2)=NC1Nc1nnc(-c2cccnc2N2CC3CCC(C2)O3)o1", "note": "(stereo not given)", "EC50": "in the range around 600 nM"}
{"smiles": "O=C1Nc2ccccc2C(c2ccccc2)=NC1Nc1nnc(C23CCN(CC2)CC3)o1", "note": "(stereo not given)", "EC50": "> 800 nM"}
{"smiles": "C[C@@H]1CN(c2ccc(-c3nnc(N[C@H]4N=C(c5ccccc5)c5ccccc5NC4=O)o3)c(Cl)c2)C[C@H](C)O1", "EC50": "> 800 nM"}
{"smiles": "O=C1Nc2ccccc2C(c2ccccc2)=N[C@@H]1Nc1nnc(-c2ccc(F)cc2N2CC3CCC(C2)O3)o1", "EC50": "in the range around 600 nM"}
{"smiles": "O=C1Nc2ccccc2C(c2ccccc2)=N[C@@H]1Nc1nnc(-c2ncc(C3CCCCC3)cc2N2CCOCC2)o1", "EC50": "< 400 nM"}
{"smiles": "COC1CCN(c2cc(C(F)(F)F)cnc2-c2nnc(N[C@H]3N=C(c4ccccc4)c4ccccc4NC3=O)o2)CC1", "EC50": "> 800 nM"}
{"smiles": "C[C@H]1CN(c2ncccc2-c2nnc(NC3N=C(c4ccccc4)c4ccccc4NC3=O)o2)CCO1", "note": "(stereo not given in full)", "EC50": "in the range around 600 nM"}
{"smiles": "O=C1Nc2ccccc2C(c2ccccc2)=NC1Nc1nnc(-c2cccnc2N2CC(F)(F)C2)o1", "note": "(stereo not given)", "EC50": "> 800 nM"}
{"smiles": "C[C@@H]1CN(c2cc(C(F)(F)F)cnc2-c2nnc(N[C@H]3N=C(c4ccccc4)c4ccccc4NC3=O)o2)CCO1", "EC50": "< 400 nM"}
{"smiles": "COCCNc1cc(C(F)(F)F)cnc1-c1nnc(N[C@H]2N=C(c3ccccc3)c3ccccc3NC2=O)o1", "EC50": "< 400 nM"}
{"smiles": "O=C1Nc2ccccc2C(c2ccccc2)=NC1Nc1nnc(-c2cccnc2N2C[C@H]3COC[C@H]3C2)o1", "note": "(stereo not given in full)", "EC50": "> 800 nM"}
{"smiles": "CO[C@H]1CCN(c2ncccc2-c2nnc(NC3N=C(c4ccccc4)c4ccccc4NC3=O)o2)C1", "note": "(stereo not given in full)", "EC50": "> 800 nM"}
{"smiles": "Cn1cc(-c2cc(C#N)cnc2-c2nnc(N[C@H]3N=C(c4ccccc4)c4ccccc4NC3=O)o2)ccc1=O", "EC50": "> 800 nM"}
{"smiles": "O=C1Nc2ccccc2C(c2ccccc2)=N[C@@H]1Nc1nnc(-c2nc(C3CC3)ccc2N2CCOCC2)o1", "EC50": "< 400 nM"}
{"smiles": "O=C1Nc2ccccc2C(c2ccccc2)=NC1Nc1nnc(-c2cccnc2N2C[C@H]3C[C@@H]2CO3)o1", "note": "(stereo not given in full)", "EC50": "> 800 nM"}
{"smiles": "O=C1Nc2ccccc2C(c2ccccc2)=NC1Nc1nnc(-c2ccccc2OC2CCOCC2)o1", "note": "(stereo not given)", "EC50": "> 800 nM"}
{"smiles": "CNc1cc(C(F)(F)F)cnc1-c1nnc(N[C@H]2N=C(c3ccccc3)c3ccccc3NC2=O)o1", "EC50": "> 800 nM"}
{"smiles": "O=C1Nc2ccccc2C(c2ccccc2)=NC1Nc1nnc(-c2ccccc2N2CCCOCC2)o1", "note": "(stereo not given)", "EC50": "> 800 nM"}
{"smiles": "CC(C)(O)CNc1cc(C(F)(F)F)cnc1-c1nnc(N[C@H]2N=C(c3ccccc3)c3ccccc3NC2=O)o1", "EC50": "< 400 nM"}
{"smiles": "Cc1ccc(-c2nnc(N[C@H]3N=C(c4ccccc4)c4ccccc4NC3=O)o2)c(N2CCOCC2)n1", "EC50": "< 400 nM"}
{"smiles": "O=C1Nc2ccccc2C(c2ccccc2)=N[C@@H]1Nc1nnc(-c2ncc(C(F)(F)F)cc2N2CC3CCC(C2)O3)o1", "EC50": "< 400 nM"}
{"smiles": "O=C1Nc2ccccc2C(c2ccccc2)=NC1Nc1nnc(-c2cccnc2N2CCCCC2)o1", "note": "(stereo not given)", "EC50": "> 800 nM"}
{"smiles": "COC(=O)c1ccc(N2CCCC2)cc1N1CCOCC1", "EC50": "< 400 nM"}
{"smiles": "O=C1Nc2ccccc2C(c2ccccc2)=N[C@@H]1Nc1nnc(-c2nnsc2N2CCOCC2)o1", "EC50": "< 400 nM"}
{"smiles": "O=C1Nc2ccccc2C(c2ccccc2)=NC1Nc1nnc(-c2ccccc2N2CCS(=O)(=O)CC2)o1", "note": "(stereo not given)", "EC50": "> 800 nM"}
{"smiles": "N#Cc1ccc(-c2nnc(N[C@H]3N=C(c4ccccc4)c4ccccc4NC3=O)o2)c(-c2ccsc2)c1", "EC50": "> 800 nM"}
{"smiles": "C[C@H]1CN(c2cc(C(F)(F)F)cnc2-c2nnc(N[C@H]3N=C(c4ccccc4)c4ccccc4NC3=O)o2)CCO1", "EC50": "< 400 nM"}
{"smiles": "COC1CCN(c2ncccc2-c2nnc(NC3N=C(c4ccccc4)c4ccccc4NC3=O)o2)CC1", "note": "(stereo not given)", "EC50": "> 800 nM"}
